“Also recorded” adds a separate entry of the source.
Assays:
[1] = test system: trigeminal ganglion (TG) gene expression; experiment: Trigeminal ganglion RNA sequencing after corneal injury and treatment; type: in vivo, mouse; conditions: RNA-seq, 12 days after corneal injury and topical treatment, vs vehicle
Protocol: Because corneal sensory nerves originate in TG neurons, we wanted to validate whether corneal injury could be sensed in the TG and t, in turn, would elicit a gene expression response. Thus, TG were harvested 12 days after injury and treatment with RvD6si or RvD6 or vehicle treatment used as control (FIG. 4) and then RNA-seq analysis was performed. […] The box plots depict two activated genes by RvD6si in this class: C9orf72 and Gpm6a (FIG. 6). We also detected specific genes related to neuropeptides and ion channel receptors in the cornea that are stimulated by the addition of PEDF+DHA (19, 21, 24) (FIG. 6D). The RNA-seq established that RvD6 or RvD6si reduced gene expression of two major neuropeptides, tachykinin precursor 1 (Tac1) that encodes Substance P (SP) and calcitonin-related polypeptide beta (Calcb). It is important to note that these neuropeptides, especially Calcb, are major pain-induced mediators in migraine and other primary headaches (30).
TG corresponding to the injury eye side (n=5) were harvested and kept in RNAlater solution (Thermo Fisher Scientific) until homogenized on ice using a Dounce homogenizer. Total mRNA was extracted using an RNeasy mini kit (Qiagen, Germantown, MD, USA) as described by the manufacturer. Purity and concentration of RNA were determined with a NanoDrop ND-1000 spectrophotometer (Thermo Fisher Scientific), and the samples were stored at −80° C. until used. RNA sequencing was performed using the adapted Smart-seq2 protocol (56). Briefly, one ng of total RNA was reverse transcribed with the Oligo-dT30VN and template-switching oligo (TSO) primers. The total cDNAs were amplified using ISPCR primer, and the library was made using the Nextera XT DNA library preparation kit (Illumina, San Diego, CA, USA). The libraries were pooled using the same molarity and sequenced using the NextSeq 500/550 High Output Kit v2 (75 cycles, Illumina). After demultiplexing, RNA-seq data were aligned to the GENCODE GRCm38 mouse primary genome assembly (Release M22, gencodegenes.org/mouse/) using the RSubread package v1.34.6 for R v3.6.1 (57). The outputted BAM files for sequencing data alignment were counted using featureCounts function (Subread v1.6.5 in Ubuntu LTS 16.4 operating system) (58). Next, the raw count data were subjected to differential gene expression analysis using DESeq2 package for R (59). The adjusted p-values were regarded as the false discover rate (FDR).

mouse cornea [2] = experiment: Mouse corneal epithelium removal inside 2 mm diameter central area; type: in vivo; conditions: topical eye drops, 3× daily for 12 days; 2020 (40)
Protocol: (§1) Mice were anesthetized with a mix of ketamine (200 mg/kg) and xylazine (10 mg/kg) injected intraperitoneally, and one drop of proparacaine hydrochloride solution (0.5%) was applied to the right eye subjected to injury. As previously described (19, 29), the center of the cornea was demarcated with a 2 mm trephine, and the epithelium and the anterior stroma were gently removed under a surgical microscope using a corneal rust ring remover (Algerbrush II; Alger Equipment Co., Lago Vista, TX, USA). One drop of 0.3% of tobramycin ophthalmic solution (Henry Schein, Melville, NY, USA) was applied to the eye to prevent postoperative infection. The same investigator (J.H.) performed all surgeries. Afterward, 10 μl of PEDF (50 ng/ml) plus DHA (50 nM) or DHA-derived lipid mediators were applied topically, as explained in each experimental design.

mouse cornea [3] = experiment: Corneal sensitivity measurement (Belmonte non-contact aesthesiometer); type: in vivo; conditions: for recovery of corneal sensitivity: compared to PEDF+DHA (and RvD6) treatment; for corneal sensitivity: vs vehicle
Protocol: Corneal sensitivity was evaluated at days 3, 6, 9 and 12 after corneal injury and treatment (FIG. 4). A new methodology to measure the sensation in mouse cornea was introduced using the Belmonte non-contact aesthesiometer. […] It is important to note that this range of normal corneal sensitivity is critical to evaluate corneal sensation since the Belmonte non-contact aesthesiometer working flow rate is from 20 to 200 ml/min. The range of normal corneal sensitivity from […] in the mouse was regarded as successful recovery after injury and treatment, and it was used to normalize the measurements.
as §1
The non-contact corneal aesthesiometer has been described as a more reliable method than the standard Cochet-Bonnet aesthesiometer to determine the corneal sensation threshold (54). Therefore, for corneal sensation measurement, the Belmonte non-contact corneal aesthesiometer (55) was used with some modification. Briefly, one researcher held the mouse and kept the air output needle at a distance of 3 mm from the cornea. Another researcher controlled the air flow rate. The measurements started at an air flow rate of 80 ml per minute and then increased gradually by ten units until the mouse started blinking. When the mouse blinked, the air flow rate was recorded as the final corneal sensitivity index.

mouse cornea [4] = experiment: Corneal wound healing 20 h after injury (methylene blue stained wounded area); type: in vivo; conditions: for corneal wound healing: compared to PEDF+DHA (and RvD6) treatment
Protocol: Studies have shown that PEDF+DHA promotes corneal wound healing in rabbit (20, 21), and in normal and diabetic mice (24, 25) after experimental surgery. We validated the ability of RvD6s (either RvD6 or RvD6si) in stimulating corneal wound healing. The right mouse eyes were injured, and the animals were divided into four groups: vehicle, PEDF+DHA, RvD6, and RvD6si (FIG. 4).
as §1
Mice were euthanized 20 h after injury and treatment, and corneas were stained with 0.5% methylene blue for 20 sec and then washed with PBS for 2 min. Photographs were taken with a dissecting microscope (SMZ 1500; Nikon, Tokyo, Japan) through an attached digital camera (DXM 1200; Nikon). The images corresponding to the wounded area were quantified using Photoshop CC 2014 software (Adobe, San Jose, CA, USA).

corneal nerves = experiment: Corneal nerve analysis (PGP9.5 and SP whole-mount nerve density); type: in vivo, mouse
Excerpt: PEDF+DHA stimulates corneal nerve regeneration in injury animal models (20-25). It was important to confirm the biological activity of RvD6si as a lipid mediator underlying the action of PEDF+DHA. To validate this, mice were injured and treated (as described in FIG. 4). Isolated corneas were stained with PGP 9.5, a pan-neuronal marker, and with SP neuropeptide antibodies. The density of non-injured corneal nerves positive to PGP 9.5 and SP, respectively, was used to normalize the values (FIG. 5). Substance P is a main neuropeptide in mammalian corneas (26-28).
as §1
Twelve days after injury and treatment, mice were euthanized, and the eyes enucleated and fixed with Zamboni's fixative (American Master Tech Scientific, Lodi, CA, USA) for 45 min at room temperature. The corneas were then excised and fixed for an additional 15 min, followed by 3 washes with PBS. To block nonspecific binding, corneas were incubated with 10% normal goat serum plus 0.5% Triton X-100 in PBS for 1 h at room temperature. Afterward, corneas were incubated with the primary antibodies, rabbit monoclonal anti-PGP9.5 (1:500), (ab108986; Abcam, Cambridge, MA, USA), and rat monoclonal anti-substance-P (SP; 1:100) (sc-21715; Santa Cruz Biotechnology, Dallas, TX, USA) for 24 h at room temperature with constant shaking. After being washed with PBS, the corneas were incubated with the corresponding secondary antibodies goat anti-rabbit Alexa-Fluor 488 (1:1000) and goat anti-rat Alexa-Fluor 488 (1:1000) (Thermo Fisher Scientific, Waltham, MA, USA) for 24 h at 4° C. Four radial cuts were performed on each cornea that was flatly mounted on a slide with the endothelium side up and examined with a fluorescent microscope (Deconvolution microscope DP80; Olympus, Tokyo, Japan). The images were merged together to build the entire view of the corneal nerve network. The corneal nerve density was measured using Photoshop CC 2014 (Adobe) as previously described (26, 29).

CC/C=C\C[C@@H](O)/C=C/C=C\C/C=C\C/C=C\C=C\[C@H](O)CCC(=O)O (single isomer, unassigned) [RvD6si]
C9orf72 gene expression in TG [1]: activated; also recorded: strong activation
Calcb gene expression in TG [1]: reduced; also recorded: decreased
Gpm6a gene expression in TG [1]: activated; also recorded: strong activation
Nrp1 gene expression in TG [1]: selectively enhanced; also recorded: selective increase
Rictor gene expression in TG [1]: strong induction; also recorded: potently and selectively induces
Tac1 gene expression in TG [1]: reduced; also recorded: decreased
Trpm8 gene expression in TG [1]: selectively enhanced; also recorded: increased expression
C9orf72 gene expression in TG ([1]; listed as RvD6i): induces
Calcb gene expression in TG ([1]; listed as RvD6i): decreased; also recorded: down-regulated
Gpm6a gene expression in TG ([1]; listed as RvD6i): induces
Rictor gene expression in TG ([1]; listed as RvD6i): strong inducer; also recorded: up-regulated
Tac1 gene expression in TG ([1]; listed as RvD6i): decreased; also recorded: down-regulated
Trpm8 gene expression in TG ([1]; listed as RvD6i): increased; also recorded: up-regulated
corneal wound healing, sensitivity and nerve regeneration (mouse cornea [2]): Increased corneal wound healing, sensitivity
recovery of corneal sensitivity (mouse cornea [3]): more potently
recovery of corneal sensitivity (mouse cornea [3]; listed as RvD6i): accelerated; also recorded: sooner
corneal sensitivity (mouse cornea [3]; day 3 after injury and treatment): faster recovery; also recorded: significantly higher
corneal sensitivity (mouse cornea [3]; day 6 after injury and treatment): faster recovery; also recorded: significantly higher
corneal sensitivity (mouse cornea [3]; day 9 after injury and treatment): significantly higher
corneal wound healing (wound closure) (mouse cornea [4]; 20 h after injury and topical treatment, compared to vehicle): greatest increase
corneal wound healing (mouse cornea [4]): more potently
corneal wound healing (mouse cornea [4]; listed as RvD6i): accelerated
total corneal nerve density, differences between RvD6si, RvD6, and PEDF+DHA (corneal nerves; 12 days after injury and treatment): no significant differences
total corneal nerve density (PGP 9.5) (corneal nerves; 12 days after injury and treatment, % of the normal (uninjured) cornea): 62.6±4.2%
density of SP-positive nerves (corneal nerves; 12 days after injury, compared to the vehicle-treated group): higher

From patent US20260224521A1, “BIOMOLECULE FOR TREATMENT OF CORNEAL PATHOLOGIES” (Board of Supervisors of Louisiana State University and …, priority 2019, published 2026)
